Laboratory results: ChEMBL document CHEMBL4342490, “Discovery of Potent and Selective MTH1 Inhibitors for Oncology: Enabling Rapid Target (In)Validation” (ACS Med Chem Lett, 2020)
Values after ≈ are worked out from the molar mass of the structure shown. Active and inactive are the calls of the source. The rule behind the calls is not given here.

Columns and labels:
U2OS [1] = test: Cytotoxicity against human U2OS cells assessed as reduction in cell viability incubated for 72 hrs by celltiter glo assay
SW480 = test: Cytotoxicity against human SW480 cells assessed as reduction in cell viability incubated for 72 hrs by celltiter glo assay; conditions: SW480, 72 h
[2] = Permeability across basolateral to apical side in human Caco2 cells; type: ADME, cell-based; conditions: Caco-2, read-out: permeability
[3] = Permeability across apical to basolateral side in human Caco2 cells; conditions: Caco-2
[4] = Dissociation constant, pKa of the compound; type: physicochemical
U2OS [5] = test: Induction of DNA damage in human U2OS cells assessed as increase in gammaH2AX foci formation at 20 uM incubated for 72 hrs by immunostaining based confocal microscopy; type: functional, cell-based
[6] = molecular target: Oxidized purine nucleoside triphosphate hydrolase (Homo sapiens) (UniProt P36639); test: Inhibition of MTH1 in human U2OS cells assessed as activation of p53 at 2.25 uM incubated for 4 and 24 hrs by Peggy sue Western blot assay; type: cell-based
[7] = Cytotoxicity against human MT4 cells assessed as reduction in cell viability incubated for 72 hrs by celltiter glo assay; type: cell-based
[8] = Stability of compound in human plasma assessed as half life; type: ADME, cell-free
[9] = Glutathione reactivity of compound; type: physicochemical
[10] = Kinetic solubility of compound at pH 2; conditions: buffer
[11] = Chemical stability of compound at pH 6 to 9 at 40 degreeC; type: physicochemical; conditions: buffer
[12] = Stability of compound in rat plasma assessed as half life; type: ADME, cell-free
[13] = Kinetic solubility of compound at pH 7; conditions: buffer
[14] = Lipophilicity, logD of the compound at pH 7.4; type: physicochemical; conditions: buffer
[15] = molecular target: Voltage-gated inwardly rectifying potassium channel KCNH2 (Homo sapiens, UniProt Q12809); test: Inhibition of human ERG
Voltage-gated inwardly rectifying potassium channel KCNH2, sequence (Q12809 whole entry): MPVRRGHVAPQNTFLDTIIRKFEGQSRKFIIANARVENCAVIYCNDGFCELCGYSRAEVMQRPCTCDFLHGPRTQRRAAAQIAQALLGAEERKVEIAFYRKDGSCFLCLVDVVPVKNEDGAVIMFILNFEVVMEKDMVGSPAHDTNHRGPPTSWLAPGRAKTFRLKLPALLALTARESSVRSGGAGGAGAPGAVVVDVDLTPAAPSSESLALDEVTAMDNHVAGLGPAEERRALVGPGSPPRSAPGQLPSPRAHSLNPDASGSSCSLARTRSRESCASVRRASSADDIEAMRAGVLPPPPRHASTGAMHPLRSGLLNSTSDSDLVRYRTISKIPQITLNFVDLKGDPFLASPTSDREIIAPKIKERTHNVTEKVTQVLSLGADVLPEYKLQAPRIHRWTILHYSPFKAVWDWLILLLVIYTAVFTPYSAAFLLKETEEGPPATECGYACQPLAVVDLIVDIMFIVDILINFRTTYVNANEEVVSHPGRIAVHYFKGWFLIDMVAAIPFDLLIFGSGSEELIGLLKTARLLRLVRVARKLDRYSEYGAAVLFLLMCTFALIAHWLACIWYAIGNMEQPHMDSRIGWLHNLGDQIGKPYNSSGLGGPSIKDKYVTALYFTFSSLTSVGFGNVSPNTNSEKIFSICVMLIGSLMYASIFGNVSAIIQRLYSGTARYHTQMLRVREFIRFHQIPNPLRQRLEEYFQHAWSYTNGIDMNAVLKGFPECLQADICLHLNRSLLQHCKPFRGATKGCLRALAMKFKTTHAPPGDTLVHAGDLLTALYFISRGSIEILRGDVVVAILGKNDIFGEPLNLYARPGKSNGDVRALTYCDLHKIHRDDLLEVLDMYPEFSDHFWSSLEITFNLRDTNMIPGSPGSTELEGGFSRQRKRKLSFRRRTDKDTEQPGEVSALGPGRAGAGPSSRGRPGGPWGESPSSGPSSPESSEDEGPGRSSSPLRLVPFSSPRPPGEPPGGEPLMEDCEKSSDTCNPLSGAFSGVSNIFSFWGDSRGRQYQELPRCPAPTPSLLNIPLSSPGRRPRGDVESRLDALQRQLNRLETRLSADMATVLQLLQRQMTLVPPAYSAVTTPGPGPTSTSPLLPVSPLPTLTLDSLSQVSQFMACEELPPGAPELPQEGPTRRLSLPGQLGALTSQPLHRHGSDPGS

[16] = Clearance in Sprague-Dawley rat at 5 mg/kg, po or 1 mg/kg, iv; type: ADME, organism-based; conditions: in vivo
[17] = Volume of distribution in Sprague-Dawley rat at 5 mg/kg, po or 1 mg/kg, iv; type: ADME, organism-based; conditions: in vivo
[18] = molecular target: T1, Nuclear receptor subfamily 1 group I member 2 (Homo sapiens, UniProt O75469); test: Activation of human PXR at 15 uM
T1 sequence (O75469 whole entry): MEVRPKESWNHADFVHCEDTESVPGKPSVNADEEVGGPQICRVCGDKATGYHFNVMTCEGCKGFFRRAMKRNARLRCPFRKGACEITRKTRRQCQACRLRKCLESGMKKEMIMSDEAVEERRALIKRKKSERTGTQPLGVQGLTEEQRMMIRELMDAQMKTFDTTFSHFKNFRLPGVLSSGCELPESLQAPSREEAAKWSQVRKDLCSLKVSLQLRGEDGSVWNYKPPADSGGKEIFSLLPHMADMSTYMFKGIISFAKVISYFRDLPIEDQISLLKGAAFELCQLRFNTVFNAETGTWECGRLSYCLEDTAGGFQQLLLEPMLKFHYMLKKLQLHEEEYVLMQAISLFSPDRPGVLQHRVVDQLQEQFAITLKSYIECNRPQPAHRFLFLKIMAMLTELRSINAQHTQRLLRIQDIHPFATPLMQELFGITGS

[19] = Half life in Sprague-Dawley rat at 5 mg/kg, po or 1 mg/kg, iv; type: ADME, organism-based; conditions: in vivo
[20] = Oral bioavailability in Sprague-Dawley rat at 5 mg/kg; type: ADME, organism-based; conditions: in vivo
[21] = molecular target: CYP isoform (not specified) (Homo sapiens, UniProt P04798+P05177+P05181+P08684+P10632+P10635+P11509+P11712+P13584+P20813+P20815+P20853+P24462+P24903+P33260+P33261+P51589+P78329+P98187+Q02928+Q08477+Q16678+Q16696+Q5TCH4+Q6VVX0+Q7Z449+Q8TAV3+Q96SQ9+Q9HB55); test: Inhibition of CYP isoform (unknown origin); type: ADME, protein assay

`C[C@H](Oc1cc(-c2cnn(C3CCNCC3)c2)cnc1N)c1c(Cl)ccc(F)c1Cl` showed an EC50 (U2OS [1]) of 6.8 µM.

In the case of `Nc1nc(NC2CC2)cc(-c2cccc(Cl)c2Cl)n1`, the EC50 (U2OS [1]) is reported as 5.6 µM and the EC50 (SW480) is reported as 9.7 µM.

`CC(=O)Nc1cc2ncccc2c(-c2cccc(C)c2C)n1` showed a Papp B→A [2] of 45 ×10⁻⁶ cm/s, a Papp A→B [3] of 37 ×10⁻⁶ cm/s and a pKa [4] of 3.5.

For `CNc1cc(N2CCCCC2)nc(N)n1`, the Activity (U2OS [5]) was “inactive”.

With `O=C1c2c(O)ccc(O)c2C(=O)c2c(NCCNCCO)ccc(NCCNCCO)c21` the inhibition [6] was “Active”.

In the case of `CNc1cc(-c2cccc(Cl)c2Cl)nc(N)n1`, the CC50 at 72 h [7] is reported as 0.726 µM, the Activity (U2OS [5]) is reported as “Active” and the EC50 (U2OS [1]) is reported as 0.7 to 1.8 µM. For the same compound, the Activity [6] was “Active” and the EC50 (SW480) was 3 µM.

In the case of `CC(=O)Nc1cc2c(c(-c3cccc(C)c3C)n1)CCCN2`, the CC50 at 72 h [7] is reported as 19 µM, the Activity (U2OS [5]) is reported as “inactive” and the half-life [8] is reported as 252 min. The Activity [9] was “Not Active”, the Papp B→A [2] was 32 ×10⁻⁶ cm/s and the solubility kinetic [10] was 97 µM (≈ 28.7 µg/mL). The Stability [11] was “Stable”, the Papp A→B [3] was 35 ×10⁻⁶ cm/s and the EC50 (U2OS [1]) was 8.05 µM. The half-life [12] was 446 min, the solubility kinetic [13] was 70 µM (≈ 20.7 µg/mL) and the logD [14] was 2.5. It also gave a pKa [4] of 7.5.

For `Nc1nc2c(-c3cccc(Cl)c3Cl)cccc2[nH]1`, the EC50 (U2OS [1]) was 14.4 µM.

For `Nc1nc2cccc(-c3cccc(Cl)c3Cl)n2n1`, the CC50 at 72 h [7] was greater than 50 µM, the Activity (U2OS [5]) was “inactive” and the IC50 [15] was greater than 25 µM. For the same compound, the clearance [16] was 12.2 mL/min/kg, the Vd [17] was 2.7 L/kg and the Activity [18] was “Not Active”. The Papp B→A [2] was 34 ×10⁻⁶ cm/s, the solubility kinetic [10] was 93 µM (≈ 26 µg/mL) and the half-life [19] was 192 min. For the same compound, the Papp A→B [3] was 41 ×10⁻⁶ cm/s, the EC50 (U2OS [1]) was 20.3 µM and the bioavailability [20] was 86%. For the same compound, the IC50 [21] was greater than 25 µM and the solubility kinetic [13] was 74 µM (≈ 20.7 µg/mL).

With `CNc1cc(N(C)[C@@H](C)c2ccccc2)nc(N)n1` the EC50 (U2OS [1]) was 24.9 µM.

With `COc1ccc2nc3[nH]nc(C)c3c(NCCOCCO)c2c1` the EC50 (U2OS [1]) was greater than 20 µM.
